For one assay, the system named is bone marrow CD34+ cells. As to the kind of experiment: Puromycin selection of HPV654-transduced bone marrow CD34+ cells; PCR of CFU-GM colonies for lentiviral vector. It counts as cell-based, human. Conditions: BM CD34+ cells, 5 μg/ml puromycin for 24 hours, 14 days growth.
The subject of assay [1] is G-CSF mobilized peripheral blood CD34+ cells. As to the kind of experiment: Puromycin selection of HPV654-transduced G-CSF mobilized peripheral blood CD34+ cells; PCR of CFU-GM colonies for lentiviral vector. It counts as cell-based, human.
Procedure: (§1) Viral titers were determined by qPCR analysis of transduced NIH3T3 cells with proviral copy number controls.
(§2) Either fresh bone marrow (BM, Lonza, Walkersville, Md.) or cryopreserved G-CSF-mobilized peripheral blood (mPB, AllCells, Emeryville, Calif.) CD34^+ purified cells were used from normal human donors. At a cell concentration of 1×10^6/ml, the CD34 cells were prestimulated for 24 hours (BM) or 18 hours (mPB) in StemPro-34 SFM supplemented with L-glutamine, 100 ng/ml hSCF, 100 ng/ml hTPO, 100 ng/ml hFLT3-L and 20 ng/ml hIL-3 for BM or 60 ng/ml hIL-3 for mPB. The cells were then resuspended at a concentration of 4×10^6 (BM) or 3×10^6 (mPB) cells/ml in the same medium containing cytokines with additional supplementation with 8 μg/ml protamine sulfate and the HPV654 supernatant at either 10% (final exposed titer of 3×10^7 IU/ml with MOI of 7.5 for BM and 1×10^7 IU/ml with MOI of 3.3 for mPB) or 50% (final exposed titer of 1.5×108 IU/ml with MOI of 37.5 for BM and 5×10^7 IU/ml with MOI of 16.7 for mPB). […] Each colony was then analyzed for the presence of the lentiviral vector by PCR analysis of individual colonies using primers for erythropoietin gene for BM and human actin gene for mPB and primers specific for the lentiviral vector (GAG for BM and LTR for mPB).

The text below walks through data of patent US20140199279A1, “METHODS FOR ENHANCING THE DELIVERY OF GENE-[…]” (Bluebird Bio, Inc., priority 2011, published 2014).

“And” between values parts separate entries of the source, which are not always exact repeats. Equal entries are not always repeated.

Procedure for bone marrow CD34+ cells: as §1, §2

Regarding `COc1ccc(C[C@H](N)C(=O)N[C@H]2[C@@H](O)[C@H](n3cnc4c(N(C)C)ncnc43)O[C@@H]2CO)cc1` [puromycin], the “colonies positive for the lentiviral vector (transduced cells)” value with bone marrow CD34+ cells (10% HPV654 supernatant) is 100%; with bone marrow CD34+ cells (50% HPV654 supernatant), 79%; in assay [1] it was 88% and 100%.
